Laboratory results as given in patent publication US7678390B2, “Carbon monoxide as a biomarker and therapeutic agent” (priority 1999, dated 2010).
Marks after values point to notes of the source that are not given here.

Columns and labels:
[1] = tested on: RAW 264.7 macrophages; assay: LPS-induced cytokine production in macrophages (ELISA, Western); assay type: cell-based, mouse; conditions: for TNF-α: RAW 264.7 macrophages
Excerpt: Animals. Male C57BL/6 and IL-10 (−/−) mice were purchased from Jackson Laboratory (Bar Harbor, Me.), and allowed to acclimate for one week with rodent chow and water ad libitum. The MKK (−/−) mice were generated as previously described [Lu, et al., EMBO J. 18:1845-1857 (1999)]. Wild type littermates were used as controls. All animals were housed in accordance with guidelines from the American Association for Laboratory Animal Care and Research Protocols and were approved by the Animal Care and Use Committee of Yale University School of Medicine. Reagents. All reagents were purchased from Sigma Chemical Co. (St Louis, Mo.) unless specified otherwise. Plasmid Construct. Plasmid pSFFV/HO-1 was constructed by insertion of the rat HO-1 cDNA [Shibahara, et al., Proc. Natl. Acad. Sci. USA. 82: 7865-7869 (1985)] downstream of the Friend spleen focus-forming virus 5′ long-terminal repeat in the mammalian expression vector pSFFV/neo [Fuhlbrigge, et al, Proc. Natl. Acad. Sci. USA. 85: 5649-5653 (1988)] (kindly provided by Stanley Korsmeyer). Transfection. Stable transfections were carried out by the calcium phosphate precipitation technique as previously described [Alam, J., J. Biol. Chem. 269: 25049-25056 (1994)]. Briefly, RAW cells were plated (1×10^6/10 cm plate) and 16 h later, transfected with […] of pSFFV/neo or pSFFV/HO-1. Cells were exposed to the DNA-CaPO4 precipitate for 6 h, shocked by a 1 min treatment with glycerol in phosphate-buffered saline and cultured for an additional 24 h in complete medium before addition of G418. Transfectants were selected over a 3-week period in the presence of G418 (up to […]) and individual clones were isolated by limited dilution. Cell Culture Experimentation. RAW 264.7 mouse peritoneal macrophages were purchased from […] (Rockville, Md.) and primary culture of rat pulmonary vascular smooth muscle cells were harvested from male Sprague Dawley rats (250-300 g) as previously described [Gunther, et al., J. Cell. Biol. 92: 289-298 (1982).]. Both cell types were grown in DMEM containing 10% FBS and gentamicin ([…]) in a humidified atmosphere of 5% CO2/balanced air or 250 ppm CO/5% CO2/balanced air. After a 2 h pretreatment with either CO or air, LPS ([…]) or sterile saline was added to the culture media and the culture plates were returned to the chamber(s). At various time points, cell plates were removed from the chamber to collect media and/or cells for Western analysis. CO Exposures. Mice or macrophages were exposed to compressed air or 250 ppm CO. For cell culture experiments, 5% CO2 was also present for buffering requirements. CO at a concentration of 1% (10,000 ppm) in compressed air was mixed with compressed air with or without CO2 in a stainless steel mixing cylinder before delivery into the exposure chamber. Flow into the 3.70-ft^2 plexiglass animal chamber was maintained at 12 L/min and into the 1.2 ft^2 cell culture chamber at a flow of 2 L/min. The cell culture chamber was humidified and maintained at 37° C. A CO analyzer (Interscan, Chatsworth, Calif.) was used to measure CO levels continuously in the chambers. Gas samples were taken by the analyzer through a port in the top of the chambers at a rate of 1 L/min and analyzed by electrochemical detection, with a sensitivity of 10-600 ppm. Concentration levels were measured hourly and there were no fluctuations in the CO concentrations once the chamber had equilibrated (approximately 5 min). Animal Experimentation. Mice were prebled from the retroorbital sinus (0.25 ml) and then exposed to CO (250 ppm) or room air for 1 h prior to administration of LPS (1 mg/kg, i.p.), E. coli serotype O127:B8. 1 and 16 h thereafter, they were removed from the exposure apparatus individually and a blood sample was obtained via the retroorbital sinus. After the blood collection, the mice were immediately returned to the exposure chamber. […]

[2] = tested on: RAW 264.7 macrophages; assay: cGMP radioimmunoassay in macrophages; assay type: cell-based, mouse; conditions: 2 h
Experimental: Nitrate/Nitrite Analysis. Both analytes were measured in the cell culture media which had been ultrafiltered to remove all proteins greater than 10,000 molecular weight. All samples were than analyzed according to the assay kit protocols. (R & D, Minneapolis, Minn.). cGMP Radioimmunoassay (RIA) in macrophages. Macrophages or vascular smooth muscle cells were exposed to CO (250 ppm) or air. 20 min before the end of the exposure 1 mM of 3-isobutyl-1-methylxanthine (IBMX) was added to the cells to prevent phosphodiesterase degradation of cGMP. After 2 h of exposure, cells were removed from the exposure chamber, rinsed with PBS and then 0.5 ml of 75% EtOH was added to the plate and cells were scraped and disrupted via sonication for 5 s. Samples were then centrifuged at 2000 g for 10 min. Supernatants were transferred to fresh tubes and evaporated to dryness. cGMP concentration in the cell extracts was determined by radioimmunoassay (NEN, Boston, Mass.) according to manufacturer's instructions. cGMP was normalized to protein concentration as determined by Bradford assay. Statistical Analysis. Data are expressed as the mean±SE. Differences in measured variables between experimental and control group were assessed using Student's t tests. Statistical calculations were performed on a Macintosh personal computer using the Statview II Statistical Package (Abacus Concepts, Berkeley, Calif.). […]

[3] = tested on: rat pulmonary vascular smooth muscle cells; assay: cGMP radioimmunoassay in vascular smooth muscle cells; assay type: cell-based; conditions: 2 h
Excerpt: (§1) Animals. Male C57BL/6 and IL-10 (−/−) mice were purchased from Jackson Laboratory (Bar Harbor, Me.), and allowed to acclimate for one week with rodent chow and water ad libitum. The MKK (−/−) mice were generated as previously described [Lu, et al., EMBO J. 18:1845-1857 (1999)]. Wild type littermates were used as controls. All animals were housed in accordance with guidelines from the American Association for Laboratory Animal Care and Research Protocols and were approved by the Animal Care and Use Committee of Yale University School of Medicine. Reagents. All reagents were purchased from Sigma Chemical Co. (St Louis, Mo.) unless specified otherwise. Plasmid Construct. Plasmid pSFFV/HO-1 was constructed by insertion of the rat HO-1 cDNA [Shibahara, et al., Proc. Natl. Acad. Sci. USA. 82: 7865-7869 (1985)] downstream of the Friend spleen focus-forming virus 5′ long-terminal repeat in the mammalian expression vector pSFFV/neo [Fuhlbrigge, et al, Proc. Natl. Acad. Sci. USA. 85: 5649-5653 (1988)] (kindly provided by Stanley Korsmeyer). Transfection. […] Gas samples were taken by the analyzer through a port in the top of the chambers at a rate of 1 L/min and analyzed by electrochemical detection, with a sensitivity of 10-600 ppm. Concentration levels were measured hourly and there were no fluctuations in the CO concentrations once the chamber had equilibrated (approximately 5 min). […]

[4] = tested on: p38 MAP kinase; assay: LPS-induced MAP kinase activation, Western blot (p38); assay type: cell-based, mouse; conditions: RAW 264.7 macrophages, LPS in the presence of CO
Excerpt: as §1

[5] = tested on: ERK1/ERK2; assay: LPS-induced MAP kinase activation, Western blot (ERK1/ERK2); assay type: cell-based, mouse; conditions: RAW 264.7 macrophages, LPS in the presence of CO
Excerpt: as §1

[6] = tested on: JNK; assay: LPS-induced MAP kinase activation, Western blot (JNK); assay type: cell-based, mouse; conditions: RAW 264.7 macrophages, LPS in the presence of CO
Excerpt: as §1

[7] = tested on: MKK3/MKK6; assay: LPS-induced activation of MKK3/MKK6 in RAW 264.7 cells; assay type: cell-based, mouse; conditions: LPS in the presence of CO (data not shown)
Excerpt: as §1

[8] = tested on: MKK3(−/−) mice given LPS; assay: LPS-induced serum cytokines in MKK3(-/-) mice; assay type: in vivo, mouse; conditions: LPS 1 mg/kg, 250 ppm CO
Excerpt: as §1

[9] = tested on: IL-10(−/−) null mice given LPS; assay: LPS-induced serum TNF-α in IL-10(-/-) null mice; assay type: in vivo; conditions: Mus musculus, IL-10(−/−) mice, CO 250 ppm, 1 h, read-out: inhibition of serum TNF-α levels
Excerpt: as §1

`[C-]#[O+]` [CO, carbon monoxide] was tested, and the “LPS-induced TNF-α production (ELISA)” value ([1]; CO 250 ppm) was “significantly attenuated levels”, the “LPS-induced MIP-2” value ([1]; LPS, CO 250 ppm) was “not affecting” and the “LPS-induced IFN-g” value ([1]; LPS, CO (data not shown)) was “not affecting”. For the same compound, the “LPS-induced JE” value ([1]; LPS, CO (data not shown)) was “not affecting”, the “LPS-induced KC” value ([1]; LPS, CO (data not shown)) was “not affecting” and the “LPS-induced accumulation of IL-10” value ([1]; LPS, CO at 250 ppm) was “significantly augmented”. For the same compound, the “inhibition of TNF-α production in the media by ELISA” value ([1]; RAW 264.7 cells, LPS in the presence of CO) was over 80%, the TNF-α ([1]; with LPS) was 230 ± 40^b pg/ml and the TNF-α ([1]; without LPS) was 15 ± 5 pg/mL. The “TNF-α protein expression by Western blot” value ([1]; cell lysates and media, LPS in the presence of CO) was “decreased TNF-α protein expression”, the “increase in cGMP” value ([2]; 250 ppm CO) was “no significant increase” and the cGMP ([2]; CO 250 ppm) was 3.95 ± 0.6 pmol/mg protein. The cGMP ([3]; VSM (vascular smooth muscle cells), CO 250 ppm) was 8.1 ± 2^c pmol/mg protein, the “increase in cGMP content” value ([3]; smooth muscle cells, 250 ppm CO) was 16 fold and the “LPS-induced p38 MAP kinase activation” value [4] was “significantly augmented”. For the same compound, the “LPS-induced ERK1/ERK2 MAP kinase activation” value [5] was “not affected”, the “LPS-induced JNK MAP kinase activation” value [6] was “not affected” and the “MKK3/MKK6 activation by LPS” value [7] was “augmentation”. The “LPS-induced TNF-α production” value [8] was “did not affect”, the “serum IL-10 levels after LPS” value [8] was “did not exhibit augmented serum IL-10 levels” and the inhibition at 250 ppm [9] was 66%.
